# Reference: patent US20240117417A1, “CELL ENGINEERING COMPOSITIONS AND METHODS USING FLUOROGENIC OLIGONUCLEOTIDE SIGNALING PROBES AND FLOW CYTOMETRY” (Secondcell Bio, LLC, priority 2021, published 2024)
# Structures can show the parent of a compound that is named as a salt.
# Tested on: salty taste of sodium chloride
# Assay: human sensory taste testing, pairwise comparisons
# Assay type: in vivo
# Details: pairwise comparisons of 45 mM NaCl+15 pg STE1/mL
# Description: The sensory studies used pairwise comparisons of 45 mM NaCl+15 pg STE1/mL using a human sensory taste testing protocol approved by an institutional review board, 13 out of 15 participants selected the sample containing STE1 as more salty.
row,Compound,participants who selected the sample containing STE1 as more salty
1,"CCCc1ccc(OC(=O)c2ccco2)cc1 [STE1, 4-propylphenyl 2-furoate]",13 out of 15

# Tested on: GABAA receptor ion channel subunit combinations α1β3γ2s, α2β3γ2s, α3β3γ2s or α5β3γ2s
# Assay: HTS of LOPAC library on the panel of GABAA cell lines, fluorescent membrane potential cell-based assay
# Details: not given
# Description: Production of cell lines: Each gene of interest was subcloned into an independent mammalian expression vector containing a detection tag and drug selectable marker and transfected into HEK293T and CHO cells cultured using DMEM supplemented with 50 mL fetal bovine serum, a 4 mM L-Glutamine, 10 mM Hepes pH 7.4. After 1 to 3 days cells were transferred to fresh media containing mild selective pressure for 7 to 14 days. On the day of the experiment, each well of four to six 24-well tissue culture plates was plated with 200 ul to 400 ul of transfected cells at 1.25 to 2×10^6 cells/mL in serum-free media and exposed to differentially-labeled signaling probes that can hybridize with the expression products. For each well, 1.7 to 2.5 uL of each probe at a concentration of 2.5 to 5 uM was added to 50 uL of serum free media in tube A and 0.3 to 0.75 uL of transfection reagent, using Lipofectamine for HEK cells (Thermo Fisher 18324) and jetPEI for CHO (Polyplus Transfection 101) was added to tube B. The contents of tubes A and B were mixed and incubated at room temperature for 25 to 30 minutes prior to addition to the well. Following a 1 to 2 hour incubation at 37° C. in a tissue culture incubator, serum-free media was added to the well up to a total volume of 1 mL. The plates were spun at 2,000 RPM for 4 minutes. 750 uL of media was aspirated and replaced with 250 uL of fresh serum-free media. The cells were incubated for an additional 2 to 2.5 hours then used to isolate individual positive cells using Beckman Coulter Epic Altra or Becton Dickinson FACS Aria flow cytometers.
# (§1) Cell-based Assays: Functional testing using fluorescent cell-based assays in the absence of any antibiotic-mediated selectable pressure was performed over time (typically for at least 4 to 6 weeks) to identify inherently stable clones. Commonly available fluorescent membrane potential and calcium flux kits and reagents were used for fluorescent cell-based assays in 96-well and 384-well plates using the Molecular Devices FLIPR 3 and Hamamatsu FDSS 6000 plate readers as described (Shekdar 2011; Shekdar and Sawchuk 2012; Shekdar and Venkatachalan 2012, Shekdar 2017). Electrophysiology of ion channel cell lines was obtained using the Nanion Technologies Patchliner patch clamp system. The patch clamp recordings were conducted according to Nanion's standard procedure (Obergrussberger 2014). Currents were measured using the whole-cell configuration. The extracellular solution contained the following: 140 mM NaCl, 4 mM KCl, 1 mM MgCl2, 2 mM CaCl2), 5 mM glucose, 10 mM Hepes, pH 7.4 (adjusted with NaOH). The intracellular solution for sodium current recordings contained the following: 50 mM CsCl, 10 mM NaCl, 60 mM CsF, 20 mM EGTA, 10 mM Hepes, pH 7.2 (adjusted with CsOH). For transient transfection studies, Fugene 6 was used to transfect expression plasmid into cells cultured as above and cells were assayed three days post-transfection.
row,Compound,HTS hit: activated at least one of the GABAA cell lines at least as much as GABA itself
1,C[C@]12CC[C@@H](O)C[C@@H]1CC[C@@H]1[C@@H]2CC[C@]2(C)C(=O)CC[C@@H]12 [Androsterone],identified
2,CC(C)c1cccc(C(C)C)c1O [Propofol],activated at least one of the cell lines at least as much as GABA itself

# Same assay, conditions: LOPAC (Sigma 1280) screen on panel of four GABAA cell lines
row,Compound,HTS hit: activated at least one of the GABAA cell lines at least as much as GABA itself
1,CC(=O)[C@H]1CC[C@H]2[C@@H]3CC[C@H]4C[C@H](O)CC[C@]4(C)[C@H]3CC[C@]12C [5-alpha-pegnan-3alpha-ol-20-one],activated at least one of the cell lines at least as much as GABA itself
2,COc1cc(/C=C(\C#N)C(=O)c2ccc(O)c(O)c2)cc(I)c1O [I-OMe-Tyrphostin AG 538],identified
3,OCCN(CCO)c1nc(N2CCCCC2)c2nc(N(CCO)CCO)nc(N3CCCCC3)c2n1 [Dipyridamole],identified
4,NCCCC(=O)O [GABA],activated at least one of the cell lines at least as much as GABA itself
5,O=C(O)C1=CCNCC1 [Isoguvacine hydrochloride],activated at least one of the cell lines at least as much as GABA itself
6,CN1C(=O)CCS(=O)(=O)C1c1ccc(Cl)cc1 (centres unmarked) [Chlormezanone],identified
7,"C[C@]12CC[C@@H](O)C[C@@H]1CC[C@@H]1[C@@H]2CC[C@]2(C)[C@@H](C(=O)CO)CC[C@@H]12 [3-alpha, 21-dihydroxy-5-alpha-pregnan-20-one]",activated at least one of the cell lines at least as much as GABA itself
8,"CC(=O)[C@H]1CC[C@H]2[C@@H]3CC[C@H]4C[C@H](O)CC[C@]4(C)[C@H]3C(=O)C[C@]12C [5-alpha-pregnan-3alpha-ol-11,20-dione]",activated at least one of the cell lines at least as much as GABA itself
9,CC(C)(C)c1cc(C=C(C#N)C#N)cc(C(C)(C)C)c1O [Tyrphostin A9],identified
10,O=C(Nc1ccc([N+](=O)[O-])cc1Cl)c1cc(Cl)ccc1O [Niclosamide],identified
11,O=S(=O)(O)C1CCNCC1 [Piperidine-4-sulphonic acid],activated at least one of the cell lines at least as much as GABA itself
12,Ivermectin,identified
13,CCCCNc1c(C(=O)OCC)c(C)nc2c1cnn2CC [Tracazolate],activated at least one of the cell lines at least as much as GABA itself
14,NCc1cc(=O)[nH]o1 [Muscimol hydrobromide],activated at least one of the cell lines at least as much as GABA itself

# Tested on: CFTR
# Assay: functional cell-based assay of the CFTR cell line (response to Forskolin)
# Details: FIG. 22A left panel, read-out: EC50 value, dose-response curve for the CFTR cell line
# Description: Production of cell lines: Each gene of interest was subcloned into an independent mammalian expression vector containing a detection tag and drug selectable marker and transfected into HEK293T and CHO cells cultured using DMEM supplemented with 50 mL fetal bovine serum, a 4 mM L-Glutamine, 10 mM Hepes pH 7.4. After 1 to 3 days cells were transferred to fresh media containing mild selective pressure for 7 to 14 days. On the day of the experiment, each well of four to six 24-well tissue culture plates was plated with 200 ul to 400 ul of transfected cells at 1.25 to 2×10^6 cells/mL in serum-free media and exposed to differentially-labeled signaling probes that can hybridize with the expression products. […]
# (§2) Cell-based Assays: Functional testing using fluorescent cell-based assays in the absence of any antibiotic-mediated selectable pressure was performed over time (typically for at least 4 to 6 weeks) to identify inherently stable clones. Commonly available fluorescent membrane potential and calcium flux kits and reagents were used for fluorescent cell-based assays in 96-well and 384-well plates using the Molecular Devices FLIPR 3 and Hamamatsu FDSS 6000 plate readers as described (Shekdar 2011; Shekdar and Sawchuk 2012; Shekdar and Venkatachalan 2012, Shekdar 2017). […] Currents were measured using the whole-cell configuration. […]
row,Compound,EC50 [nM]
1,C=C[C@@]1(C)CC(=O)[C@]2(O)[C@@]3(C)[C@@H](O)CCC(C)(C)[C@@H]3[C@H](O)[C@H](OC(C)=O)[C@@]2(C)O1 [Forskolin],256

# Target: T1, αβγ-ENaC (Homo sapiens, UniProt P37088+P51168+P51170)
# T1 construct: expressed in transfected cells
# Assay: cell-based assay selective for αβγ-ENaC activity (response to sodium increase)
# Details: 75 mM increase in sodium concentration, FIG. 23B right panel
# Description: Production of cell lines: Each gene of interest was subcloned into an independent mammalian expression vector containing a detection tag and drug selectable marker and transfected into HEK293T and CHO cells cultured using DMEM supplemented with 50 mL fetal bovine serum, a 4 mM L-Glutamine, 10 mM Hepes pH 7.4. After 1 to 3 days cells were transferred to fresh media containing mild selective pressure for 7 to 14 days. […]
# as §2
# (§3) Finally, Chromovert® Technology was used to create a cell line for ENaC. […] One potentiator identified during HTS of proteolyzed ENaC was assessed in human sensory studies where it was confirmed to enhance the salty taste of sodium chloride, as shown in FIG. 23E.
# T1 sequence (P51170 whole entry): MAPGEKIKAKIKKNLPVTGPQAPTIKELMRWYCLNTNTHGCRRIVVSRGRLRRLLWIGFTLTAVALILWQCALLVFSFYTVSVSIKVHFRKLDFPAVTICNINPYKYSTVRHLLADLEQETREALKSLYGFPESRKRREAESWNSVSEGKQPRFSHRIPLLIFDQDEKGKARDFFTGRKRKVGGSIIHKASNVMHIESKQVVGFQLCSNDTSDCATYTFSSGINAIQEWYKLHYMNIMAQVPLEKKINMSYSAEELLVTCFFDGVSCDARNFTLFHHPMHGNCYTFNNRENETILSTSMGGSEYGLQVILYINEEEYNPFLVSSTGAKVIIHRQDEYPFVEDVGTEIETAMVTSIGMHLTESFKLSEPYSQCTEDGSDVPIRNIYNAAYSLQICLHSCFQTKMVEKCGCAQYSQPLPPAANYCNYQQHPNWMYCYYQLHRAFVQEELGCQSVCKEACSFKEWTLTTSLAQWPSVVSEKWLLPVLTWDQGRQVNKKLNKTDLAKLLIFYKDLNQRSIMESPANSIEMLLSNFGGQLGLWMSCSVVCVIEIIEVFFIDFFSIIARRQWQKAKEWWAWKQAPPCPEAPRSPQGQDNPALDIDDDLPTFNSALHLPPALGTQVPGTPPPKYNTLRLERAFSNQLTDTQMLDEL
# T1 sequence (P51168 whole entry): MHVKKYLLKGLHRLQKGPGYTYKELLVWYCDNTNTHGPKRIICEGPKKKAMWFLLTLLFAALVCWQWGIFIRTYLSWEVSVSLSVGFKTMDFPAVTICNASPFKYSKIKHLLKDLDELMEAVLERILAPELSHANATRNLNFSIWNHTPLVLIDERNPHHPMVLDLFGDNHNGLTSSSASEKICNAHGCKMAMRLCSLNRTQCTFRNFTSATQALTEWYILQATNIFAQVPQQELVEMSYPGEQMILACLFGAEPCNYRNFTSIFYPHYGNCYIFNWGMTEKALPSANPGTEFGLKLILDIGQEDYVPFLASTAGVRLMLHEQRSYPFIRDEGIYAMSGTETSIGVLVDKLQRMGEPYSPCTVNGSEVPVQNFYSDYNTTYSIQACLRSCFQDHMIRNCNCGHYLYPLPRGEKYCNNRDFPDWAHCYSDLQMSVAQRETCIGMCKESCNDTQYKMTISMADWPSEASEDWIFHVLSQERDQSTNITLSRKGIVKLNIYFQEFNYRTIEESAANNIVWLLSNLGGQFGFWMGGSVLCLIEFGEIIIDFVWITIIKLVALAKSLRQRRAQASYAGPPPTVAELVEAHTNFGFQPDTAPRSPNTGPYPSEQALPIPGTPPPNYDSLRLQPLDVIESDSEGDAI
# T1 sequence (P37088 whole entry): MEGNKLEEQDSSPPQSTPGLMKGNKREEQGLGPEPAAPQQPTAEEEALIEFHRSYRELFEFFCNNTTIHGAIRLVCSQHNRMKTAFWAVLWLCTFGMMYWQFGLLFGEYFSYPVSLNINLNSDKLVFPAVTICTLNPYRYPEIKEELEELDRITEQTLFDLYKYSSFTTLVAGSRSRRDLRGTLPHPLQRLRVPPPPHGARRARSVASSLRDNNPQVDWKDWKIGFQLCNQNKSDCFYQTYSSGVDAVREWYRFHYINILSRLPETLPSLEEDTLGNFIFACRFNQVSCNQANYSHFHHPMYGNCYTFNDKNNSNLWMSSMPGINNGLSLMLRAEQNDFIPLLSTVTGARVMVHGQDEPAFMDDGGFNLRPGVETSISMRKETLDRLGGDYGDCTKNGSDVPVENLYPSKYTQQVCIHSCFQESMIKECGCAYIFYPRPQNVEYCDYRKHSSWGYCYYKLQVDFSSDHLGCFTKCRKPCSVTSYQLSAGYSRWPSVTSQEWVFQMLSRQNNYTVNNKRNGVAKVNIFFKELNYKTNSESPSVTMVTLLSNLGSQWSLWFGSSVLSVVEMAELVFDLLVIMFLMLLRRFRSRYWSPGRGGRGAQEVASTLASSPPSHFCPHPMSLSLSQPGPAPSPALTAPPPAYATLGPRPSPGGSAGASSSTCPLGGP
row,Compound,effect on the response of the αβγ-ENaC cell line to a sodium increase
1,N=C(N)NC(=O)c1nc(Cl)c(N)nc1N [amiloride],inhibition of the response to a 75 mM increase in sodium concentration

# Tested on: proteolyzed αβγ-ENaC
# Assay: HTS of a compound library against proteolyzed ENaC cell line
# Assay type: cell-based
# Details: not given
# Description: as §1, with “The intracellular solution for sodium current recordings contained the following: 50 mM CsCl, 10 mM NaCl, 60 mM CsF, 20 mM EGTA, 10 mM Hepes, pH 7.2 (adjusted with CsOH). For transient transfection studies, Fugene 6 was used to transfect expression plasmid into cells cultured as above and cells were assayed three days post-transfection.” left out
# as §3
row,Compound,activity identified during HTS of proteolyzed αβγ-ENaC
1,"CCCc1ccc(OC(=O)c2ccco2)cc1 [STE1, 4-propylphenyl 2-furoate]",potentiator of proteolyzed αβγ-ENaC
